What was measured:
Assay type in all cases: cell-based
CRE1/AHK4 = biological target: T1, CRE1/AHK4 (Arabidopsis thaliana, UniProt Q9C5U0); assay: Activation of cytokinin receptor CRE1/AHK4 in E. coli KMI001 (β-galactosidase reporter); conditions: E. coli KMI001 pIN-III-AHK4, 17 h incubation; n.i. means without interaction
T1 construct: expressed in transfected cells; host or cells: Escherichia coli KMI001, plasmid pIN-III-AHK4
Protocol: (§1) Escherichia coli strains KMI001 harbouring the plasmid pIN-III-AHK4 or pSTV28-AHK3 were grown overnight at 25° C. in M9 media enriched with 0.1% casamino acids to OD600˜1. The preculture was diluted 1:600 in 1 ml M9 medium containing 0.1% casamino acids and 1 μl stock solution of either the tested compound (10^−7 M−5×10^−5 M) or solvent control (DMSO, ethanol, methanol) were added. The cultures were further grown at 25° C. in microtiter plate, 200 μl per well. […] The cultures were centrifuged and 50 μl aliquots of the supernatant were transferred to microtiter plate containing 2 μl 50 mM 4-methyl umbelliferyl galactoside which was subsequently incubated for 1 h at 37° C. The reaction was stopped by adding 100 μl 0.2 M Na2CO3. Fluorescence was measured using a Fluoroscan Ascent (Labsystems, Finland) at the excitation and emission wavelengths of 365 and 460 nm, respectively. The OD600 of remaining culture was determined and β-galactosidase activity was calculated as nmol 4-methylumbelliferone×OD600^−1×h^−1.
(§2) The EC50 value, the compound concentration activating the receptor to 50%, was calculated from the obtained dose response curves. The compound functioning as cytokinin antagonists should not activate cytokinin signalling pathway. The values shown in Table 2 are means of three replicates and the entire test was repeated at least twice.

AHK3 = biological target: T2, AHK3 (Arabidopsis thaliana, UniProt Q9C5U1); assay: Activation of cytokinin receptor AHK3 in E. coli KMI001 (β-galactosidase reporter); conditions: E. coli KMI001 pSTV28-AHK3, 28 h incubation, n.i. means without interaction
T2 construct: expressed in transfected cells; host or cells: Escherichia coli KMI001, plasmid pSTV28-AHK3
T2 sequence (Q9C5U1 1-1036): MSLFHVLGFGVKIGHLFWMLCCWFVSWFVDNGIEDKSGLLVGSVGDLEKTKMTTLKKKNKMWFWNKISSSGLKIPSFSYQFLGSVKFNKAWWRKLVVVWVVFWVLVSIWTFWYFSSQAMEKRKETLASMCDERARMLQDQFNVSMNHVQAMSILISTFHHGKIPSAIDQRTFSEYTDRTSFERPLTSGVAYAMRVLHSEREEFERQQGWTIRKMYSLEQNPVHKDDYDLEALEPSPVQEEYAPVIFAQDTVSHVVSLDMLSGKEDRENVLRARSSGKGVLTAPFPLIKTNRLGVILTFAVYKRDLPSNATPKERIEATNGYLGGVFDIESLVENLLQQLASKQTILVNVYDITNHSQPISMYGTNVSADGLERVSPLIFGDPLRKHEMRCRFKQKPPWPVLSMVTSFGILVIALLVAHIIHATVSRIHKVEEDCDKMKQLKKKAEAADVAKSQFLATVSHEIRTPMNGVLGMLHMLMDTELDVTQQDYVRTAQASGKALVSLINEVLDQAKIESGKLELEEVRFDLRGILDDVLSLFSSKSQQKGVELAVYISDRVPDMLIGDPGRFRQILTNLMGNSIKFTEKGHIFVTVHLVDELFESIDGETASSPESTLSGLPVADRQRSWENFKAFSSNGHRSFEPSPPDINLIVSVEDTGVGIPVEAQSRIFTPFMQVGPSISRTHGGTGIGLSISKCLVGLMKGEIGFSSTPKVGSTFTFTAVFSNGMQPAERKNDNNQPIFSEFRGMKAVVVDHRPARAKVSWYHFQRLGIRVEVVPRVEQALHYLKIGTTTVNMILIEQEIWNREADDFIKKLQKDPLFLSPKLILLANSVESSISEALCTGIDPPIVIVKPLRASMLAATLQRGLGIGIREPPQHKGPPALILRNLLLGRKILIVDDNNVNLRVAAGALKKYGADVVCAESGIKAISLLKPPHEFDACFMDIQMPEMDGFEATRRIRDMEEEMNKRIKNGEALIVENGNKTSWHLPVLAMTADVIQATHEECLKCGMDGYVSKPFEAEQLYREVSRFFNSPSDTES
Protocol: as §1, §2

[1] = system: cytokinin-dependent tobacco callus Nicotiana tabacum L. cv. Wisconsin 38; assay: Cytokinin-dependent tobacco callus bioassay; conditions: for activity (%) [10^−6 mol · l^−1 BA = 100%]: at concentration with highest activity, n.a. means inactive; for concentration with highest activity: callus fresh weight after four weeks
Protocol: Stimulatory effect of newly prepared derivatives was tested using cytokinin-dependent tobacco callus. The cytokinin-dependent tobacco callus Nicotiana tabacum L. cv. Wisconsin 38 was maintained at 25° C. in darkness on modified MS medium, containing per 1 liter: 4 μmol of nicotinic acid, 2.4 μmol of pyridoxine hydrochloride, 1.2 μmol of thiamine, 26.6 μmol of glycine, 1.37 μmol of glutamine, 1.8 μmol of myo-inositol, 30 g of sucrose, 8 g of agar, 5.37 μmol of NAA and 0.5 μmol of the compound tested. Subcultivation was carried out every three weeks. Fourteen days before the bioassay, the callus tissue was transferred to the media without 6-benzylaminopurine. The biological activity was determined from the increase of the fresh callus weight after four weeks of cultivation. Five replicates were prepared for each concentration of the compound tested and the entire test was repeated twice. […] The compounds to be tested were dissolved in dimethylsulfoxide (DMSO) and the solution brought up to 10^−3M with distilled water. This stock solution was further diluted with the respective media used for the biotest to a concentration ranging from 10^−8M to 10^−4M.
From the obtained data, the concentration with the highest activity was selected for each compound tested. Relative activity of the compound at this concentration was calculated (Table 3). The activity obtained for 10^−6 M of the control substance 6-benzylaminopurine was postulated as 100% biological activity. […]

T1 sequence (Q9C5U0 whole entry): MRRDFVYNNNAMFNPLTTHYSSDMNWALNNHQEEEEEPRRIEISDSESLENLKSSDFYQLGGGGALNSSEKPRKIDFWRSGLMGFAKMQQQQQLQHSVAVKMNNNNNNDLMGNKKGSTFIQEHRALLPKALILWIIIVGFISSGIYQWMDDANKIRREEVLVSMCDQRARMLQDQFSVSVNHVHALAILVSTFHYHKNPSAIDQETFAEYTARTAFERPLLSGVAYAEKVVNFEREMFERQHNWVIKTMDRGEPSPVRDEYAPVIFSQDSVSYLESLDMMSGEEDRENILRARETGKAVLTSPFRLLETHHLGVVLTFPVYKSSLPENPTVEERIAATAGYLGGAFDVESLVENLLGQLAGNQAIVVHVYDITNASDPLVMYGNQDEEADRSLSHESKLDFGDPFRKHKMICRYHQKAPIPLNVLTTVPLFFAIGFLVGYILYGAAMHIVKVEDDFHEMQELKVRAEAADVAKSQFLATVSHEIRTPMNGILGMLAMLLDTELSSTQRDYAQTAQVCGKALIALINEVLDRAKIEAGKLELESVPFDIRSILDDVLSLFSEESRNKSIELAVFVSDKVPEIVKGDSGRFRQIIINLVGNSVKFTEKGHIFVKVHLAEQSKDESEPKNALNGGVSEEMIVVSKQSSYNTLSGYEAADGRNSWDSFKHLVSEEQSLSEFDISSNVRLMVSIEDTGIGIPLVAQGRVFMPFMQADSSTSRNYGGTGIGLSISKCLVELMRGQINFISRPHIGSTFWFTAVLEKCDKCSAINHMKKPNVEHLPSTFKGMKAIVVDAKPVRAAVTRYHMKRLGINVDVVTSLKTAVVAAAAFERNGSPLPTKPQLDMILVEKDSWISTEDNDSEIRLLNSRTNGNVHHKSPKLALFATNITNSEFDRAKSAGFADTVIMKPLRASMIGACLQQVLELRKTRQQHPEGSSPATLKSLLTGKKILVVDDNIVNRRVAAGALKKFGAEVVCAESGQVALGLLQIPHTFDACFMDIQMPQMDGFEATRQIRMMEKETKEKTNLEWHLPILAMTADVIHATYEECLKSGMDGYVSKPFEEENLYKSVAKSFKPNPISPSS

| Molecule | EC50 CRE1/AHK4 (activation of cytokinin receptor) (CRE1/AHK4) | EC50 AHK3 (activation of cytokinin receptor) (AHK3) | EC50 (AHK3; read-out: EC50 AHK3 (activation of cytokinin receptor)) | activity (%) [10^−6 mol · l^−1 BA = 100%] [1] | concentration with highest activity [1] |
| --- | --- | --- | --- | --- | --- |
| CCc1cccc(CNc2ncnc3nc[nH]c23)c1[N+](=O)[O-] [Compound 17, 6-(2-nitro-3-ethylbenzylamino)purine] | n.i. | n.i | – | – | – |
| Cc1cccc(CNc2ncnc3nc[nH]c23)c1N [Compound 1, 6-(2-amino-3-methylbenzylamino)purine] | n.i. | n.i | – | – | – |
| Cc1ccc(N)c(CNc2ncnc3nc[nH]c23)c1 [Compound 3, 6-(2-amino-5-methylbenzylamino)purine] | n.i. | n.i | – | – | – |
| Cc1ccc([N+](=O)[O-])c(CNc2ncnc3nc[nH]c23)c1 [Compound 16, 6-(2-nitro-5-methylbenzylamino)purine] | n.i. | n.i | – | – | – |
| Cc1ccc(CNc2ncnc3nc[nH]c23)c(O)c1 [Compound 9, 6-(2-hydroxy-4-methylbenzylamino)purine] | n.i. | n.i | – | – | – |
| Cc1cc(C)c(O)c(CNc2ncnc3nc[nH]c23)c1 [Compound 23, 6-(2-hydroxy-3,5-dimethylbenzylamino)purine] | n.i. | n.i | – | – | – |
| CCc1ccc(O)c(CNc2ncnc3nc[nH]c23)c1 [Compound 13, 6-(2-hydroxy-5-ethylbenzylamino)purine] | n.i. | n.i | – | – | – |
| 6-(2-thio-5-methylbenzylamino)purine [Compound 19] | n.i. | n.i | – | 1.3 (±1) % | 10^−4 mol.l^−1 |
| CCc1cccc(CNc2ncnc3nc[nH]c23)c1O [Compound 12, 6-(2-hydroxy-3-ethylbenzylamino)purine] | n.i. | n.i | – | – | – |

Continued, in another order:

| EC50 CRE1/AHK4 (activation of cytokinin receptor) (CRE1/AHK4) | EC50 AHK3 (activation of cytokinin receptor) (AHK3) | EC50 (AHK3; read-out: EC50 AHK3 (activation of cytokinin receptor)) | Molecule | activity (%) [10^−6 mol · l^−1 BA = 100%] [1] | concentration with highest activity [1] |
| --- | --- | --- | --- | --- | --- |
| n.i. | – | > 100 µM | Cc1cccc(CNc2ncnc3nc[nH]c23)c1[N+](=O)[O-] [Compound 15, 6-(2-nitro-3-methylbenzylamino)purine] | – | – |
| n.i. | n.i | – | Cc1ccc(CNc2ncnc3nc[nH]c23)c(O)c1C [Compound 24, 6-(2-hydroxy-3,4-dimethylbenzylamino)purine] | – | – |
| n.i. | n.i | – | Cc1cccc(O)c1CNc1ncnc2nc[nH]c12 [Compound 11, 6-(2-hydroxy-6-methylbenzylamino)purine] | 23 (±5) % | 10^−4 mol.l^−1 |
| n.i. | n.i | – | Cc1ccc(CNc2ncnc3nc[nH]c23)c(N)c1 [Compound 2, 6-(2-amino-4-methylbenzylamino)purine] | – | – |
| n.i. | n.i | – | Cc1cc(C)c(N)c(CNc2ncnc3nc[nH]c23)c1 [Compound 21, 6-(2-amino-3,5-dimethylbenzylamino)purine] | – | – |
| n.i. | n.i | – | CCc1cccc(CNc2ncnc3nc[nH]c23)c1N [Compound 4, 6-(2-amino-3-ethylbenzylamino)purine] | – | – |
| n.i. | n.i | – | CCc1ccc(N)c(CNc2ncnc3nc[nH]c23)c1 [Compound 5, 6-(2-amino-5-ethylbenzylamino)purine] | – | – |

— patent publication US20100240537A1, “Substituted 6-(alkylbenzylamino)purine derivatives for use as cytokinin receptor antagonists and preparations containing these derivatives” (priority 2007, published 2010)
